Test results as given in ChEMBL document CHEMBL3297650, “Discovery of novel oxindole derivatives as potent α-glucosidase inhibitors” (Bioorg Med Chem, 2014).

Test: Inhibition of yeast alpha-glucosidase (unknown origin) using para-nitrophenyl glucopyranoside as substrate preincubated for 10 mins before substrate addition measured after 30 mins by spectrophotometry
Design: species or system Saccharomyces cerevisiae

| IC50 [µM] | SMILES |
| --- | --- |
| 411 | COc1ccc(/C=C2/C(=O)Nc3cc(Cl)ccc32)cc1OC |
| 2.71 | O=C1Nc2cc(Cl)ccc2/C1=C\c1ccc(O)c(O)c1 |
| 11.4 | O=C1Nc2cc(Cl)ccc2/C1=C\c1ccccc1[N+](=O)[O-] |
| 37.9 | CCOc1cccc(/C=C2/C(=O)Nc3cc(Cl)ccc32)c1O |
| 15.2 | O=C1Nc2cc(Cl)ccc2/C1=C\c1cccc(O)c1 |
| 24.7 | O=C1Nc2cc(Cl)ccc2/C1=C\c1ccc(O)cc1 |
| 55.6 | O=C1Nc2cc(Cl)ccc2/C1=C\c1ccc(Cl)cc1Cl |
| 72.2 | COc1cccc(/C=C2/C(=O)Nc3cc(Cl)ccc32)c1O |
| 84.4 | O=C1Nc2cc(Cl)ccc2/C1=C\c1ccc([N+](=O)[O-])cc1 |
| 91.2 | CN(C)c1ccc(/C=C2/C(=O)Nc3cc(Cl)ccc32)cc1 |
| 196 | O=C1Nc2cc(Cl)ccc2/C1=C\c1ccccc1 |
| 341 | COc1ccc(/C=C2/C(=O)Nc3cc(Cl)ccc32)c(OC)c1OC |
| 102 | O=C1Nc2cc(Cl)ccc2/C1=C\c1cccc2ccccc12 |
| 110 | O=Cc1ccc(/C=C2/C(=O)Nc3cc(Cl)ccc32)cc1 |
| 73.1 | O=C1Nc2cc(Cl)ccc2/C1=C\c1ccccc1Cl |
| 99.7 | CCOc1ccc(/C=C2/C(=O)Nc3cc(Cl)ccc32)cc1 |
| 51.8 | CSc1ccc(/C=C2/C(=O)Nc3cc(Cl)ccc32)cc1 |
| 82.2 | COc1ccc(O)c(/C=C2/C(=O)Nc3cc(Cl)ccc32)c1 |
| 108 | COc1ccc(/C=C2/C(=O)Nc3cc(Cl)ccc32)cc1 |
| 173 | O=C1Nc2cc(Cl)ccc2/C1=C\c1ccco1 |
| 115 | Cc1ccc(/C=C2/C(=O)Nc3cc(Cl)ccc32)cc1 |
| 17.3 | O=C1Nc2cc(Cl)ccc2/C1=C\c1c2ccccc2cc2ccccc12 |
| 52.9 | O=C1Nc2cc(Cl)ccc2/C1=C\c1c(Cl)cccc1Cl |
| 14.3 | CC(C)c1ccc(/C=C2/C(=O)Nc3cc(Cl)ccc32)cc1 |
| 139 | COc1cccc(/C=C2/C(=O)Nc3cc(Cl)ccc32)c1 |
